Laboratory results published in patent US9725445B2, “Cycloalkyl nitrile pyrazolo pyridones as Janus kinase inhibitors” (Merck Sharp & Dohme Corp., priority 2013, dated 2017).

Columns and labels:
JAK2 = JAK2 (Homo sapiens (Human), UniProt O60674); assay: Jak biochemical HTRF assay, JAK2; details: HTRF biochemical assay, recombinant GST-tagged catalytic domain; read-out: JAK2 IC50
JAK1 = JAK1 (Homo sapiens (Human), UniProt P23458); assay: Jak biochemical HTRF assay, JAK1; details: HTRF biochemical assay, recombinant GST-tagged catalytic domain; read-out: JAK1 IC50
Chain of JAK1 (P23458 875-1153): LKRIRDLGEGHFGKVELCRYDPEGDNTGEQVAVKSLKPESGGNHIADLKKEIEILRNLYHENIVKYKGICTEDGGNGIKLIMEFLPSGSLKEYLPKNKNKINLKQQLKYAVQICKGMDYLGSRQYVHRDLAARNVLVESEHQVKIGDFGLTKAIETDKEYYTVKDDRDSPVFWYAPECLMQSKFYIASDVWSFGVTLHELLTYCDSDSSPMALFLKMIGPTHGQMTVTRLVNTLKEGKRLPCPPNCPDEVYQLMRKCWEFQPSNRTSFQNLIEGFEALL

Chain of JAK2 (O60674 849-1124): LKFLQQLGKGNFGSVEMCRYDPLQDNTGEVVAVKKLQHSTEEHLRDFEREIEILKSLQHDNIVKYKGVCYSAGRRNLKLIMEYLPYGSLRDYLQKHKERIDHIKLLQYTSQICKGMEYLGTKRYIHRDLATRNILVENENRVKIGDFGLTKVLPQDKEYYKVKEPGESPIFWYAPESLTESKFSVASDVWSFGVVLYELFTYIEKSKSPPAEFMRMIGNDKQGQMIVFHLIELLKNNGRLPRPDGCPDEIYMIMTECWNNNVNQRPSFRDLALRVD

| SMILES | IC50 (JAK2) | IC50 (JAK1) |
| --- | --- | --- |
| Cc1cc(Nc2nn([C@H]3CCCC[C@@H]3C#N)c3cc[nH]c(=O)c23)ccc1C(C(C)C)n1ccnn1 (single isomer, unassigned) [Example 15-37, (1S,2S)-2-[3-({3-methyl-4-[(1S or 1R)-2-methyl-1-(1H-1,2,3-triazol-1-yl)propyl]phenyl}amino)-4-oxo-4,5-dihydro-1H-pyrazolo[4,3-c]pyridin-1-yl]cyclohexanecarbonitrile] | 0.25 nM | 0.066 nM |
| N#C[C@H]1CCCC[C@@H]1n1nc(Nc2ccc3c(c2)CN(CC(F)(F)F)C3=O)c2c(=O)[nH]ccc21 [Example 3-10, (1S,2S)-2-(4-oxo-3-{[1-oxo-2-(2,2,2-trifluoroethyl)-2,3-dihydro-1H-isoindol-5-yl]amino}-4,5-dihydro-1H-pyrazolo[4,3-c]pyridin-1-yl)cyclohexanecarbonitrile] | 0.43 nM | 0.12 nM |
| C[C@H](NC1CCC(n2nc(Nc3ccc(Cl)cc3)c3c(=O)[nH]ccc32)C(C#N)C1)C1CC1 (stereo in doubt) [Example 4-2, (1S,2S,5R)-2-(3-((4-Chlorophenyl)amino)-4-oxo-4,5-dihydro-1H-pyrazolo[4,3-c]pyridin-1-yl)-5-(((S)-1-cyclopropylethyl)amino)cyclohexanecarbonitrile] | > 1500 nM | 84 nM |
| N#C[C@H]1C[C@@H](N2CCC2)CC[C@@H]1n1nc(Nc2ccc(OC(F)(F)F)cc2)c2c(=O)[nH]ccc21 [Example 5-24, (1S,2S,5S)-5-(azetidin-1-yl)-2-(4-oxo-3-((4-(trifluoromethoxy)phenyl)amino)-4,5-dihydro-1H-pyrazolo[4,3-c]pyridin-1-yl)cyclohexanecarbonitrile] | 31 nM | 0.88 nM |
| N#C[C@@H]1C[C@@H](N2CCC2)CC[C@H]1n1nc(Nc2ccc(C(F)(F)F)cc2)c2c(=O)[nH]ccc21 [Example 5-9, (1R,2R,5S)-5-(azetidin-1-yl)-2-(4-oxo-3-((4-(trifluoromethyl)phenyl)amino)-4,5-dihydro-1H-pyrazolo[4,3-c]pyridin-1-yl)cyclohexanecarbonitrile] | 660 nM | 25 nM |
| CC1(O)CN([C@@H]2CC[C@H](n3nc(Nc4ccc(Cl)cc4)c4c(=O)[nH]ccc43)[C@@H](C#N)C2)C1 [Example 5-21, (1S,2S,5R)-2-(3-((4-chlorophenyl)amino)-4-oxo-4,5-dihydro-1H-pyrazolo[4,3-c]pyridin-1-yl)-5-(3-hydroxy-3-methylazetidin-1-yl)cyclohexanecarbonitrile] | 6.5 nM | 0.35 nM |
| Cc1cc(Nc2nn([C@H]3CCCC[C@@H]3C#N)c3cc[nH]c(=O)c23)ccc1C(=O)N1CCCC1 [Example 3-27, (1S,2S)-2-(3-{[3-methyl-4-(pyrrolidin-1-ylcarbonyl)phenyl]amino}-4-oxo-4,5-dihydro-1H-pyrazolo[4,3-c]pyridin-1-yl)cyclohexanecarbonitrile] | 0.2 nM | 0.13 nM |
| N#C[C@H]1CCCC[C@@H]1n1nc(Nc2ccc3c(c2)CN(CC2CCCC2)C3)c2c(=O)[nH]ccc21 [Example 3-162, (1S,2S)-2-(3-{[2-(cyclopentylmethyl)-2,3-dihydro-1H-isoindol-5-yl]amino}-4-oxo-4,5-dihydro-1H-pyrazolo[4,3-c]pyridin-1-yl)cyclohexanecarbonitrile] | 0.92 nM | 0.33 nM |
| N#C[C@H]1C[C@H](N2CCC2)CC[C@@H]1n1nc(Nc2ccc(C(F)(F)F)cc2)c2c(=O)[nH]ccc21 [Example 5-7, (1S,2S,5R)-5-(azetidin-1-yl)-2-(4-oxo-3-((4-(trifluoromethyl)phenyl)amino)-4,5-dihydro-1H-pyrazolo[4,3-c]pyridin-1-yl)cyclohexanecarbonitrile] | 60 nM | 1.4 nM |
| N#C[C@H]1CCCC[C@@H]1n1nc(Nc2cccc(Cn3cccn3)c2)c2c(=O)[nH]ccc21 [Example 3-43, (1S,2S)-2-(4-oxo-3-{[3-(1H-pyrazol-1-ylmethyl)phenyl]amino}-4,5-dihydro-1H-pyrazolo[4,3-c]pyridin-1-yl)cyclohexanecarbonitrile] | 1.7 nM | 1.4 nM |
| N#C[C@H]1CCCC[C@@H]1n1nc(Nc2ccc3c(c2)CC2(CCCCC2)S3(=O)=O)c2c(=O)[nH]ccc21 [Example 21-2, (1S,2S)-2-(3-((1,1-Dioxido-3H-spiro[benzo[b]thiophene-2,1′-cyclohexan]-5-yl)amino)-4-oxo-4,5-dihydro-1H-pyrazolo[4,3-c]pyridin-1-yl)cyclohexanecarbonitrile] | 0.38 nM | 0.12 nM |
| N#C[C@H]1C[C@H](N2CCC2)CC[C@@H]1n1nc(Nc2ccc(Cl)c(F)c2)c2c(=O)[nH]ccc21 [Example 5-3, (1S,2S,5R)-5-(azetidin-1-yl)-2-(3-((4-chloro-3-fluorophenyl)amino)-4-oxo-4,5-dihydro-1H-pyrazolo[4,3-c]pyridin-1-yl)cyclohexanecarbonitrile] | 40 nM | 1.7 nM |
| N#C[C@H]1CCCC[C@@H]1n1nc(Nc2ccc3c(c2)CN(CC(F)(F)F)S3(=O)=O)c2c(=O)[nH]ccc21 [Example 3-58, (1S,2S)-2-(3-{[1,1-dioxido-2-(2,2,2-trifluoroethyl)-2,3-dihydro-1,2-benzisothiazol-5-yl]amino}-4-oxo-4,5-dihydro-1H-pyrazolo[4,3-c]pyridin-1-yl)cyclohexanecarbonitrile] | 0.58 nM | 0.05 nM |

Next, values leading:

| IC50 (JAK2) | IC50 (JAK1) | SMILES |
| --- | --- | --- |
| 0.17 nM | 0.17 nM | Cc1cc(Nc2nn([C@H]3CCCC[C@@H]3C#N)c3cc[nH]c(=O)c23)ccc1C(C)(C)n1ccnn1 [Example 15-33, (1S,2S)-2-[3-({3-methyl-4-[1-methyl-1-(1H-1,2,3-triazol-1-yl)ethyl]phenyl}amino)-4-oxo-4,5-dihydro-1H-pyrazolo[4,3-c]pyridin-1-yl]cyclohexanecarbonitrile] |
| 2.2 nM | 0.26 nM | N#C[C@H]1CCCC[C@@H]1n1nc(Nc2cccc([C@@H](N)C(F)(F)F)c2)c2c(=O)[nH]ccc21 [Example 7-2, (1S,2S)-2-[3-({3-[(1R)-1-amino-2,2,2-trifluoroethyl]phenyl}amino)-4-oxo-4,5-dihydro-1H-pyrazolo[4,3-c]pyridin-1-yl]cyclohexanecarbonitrile] |
| 11 nM | 0.28 nM | CN(C)[C@@H]1CC[C@H](n2nc(Nc3ccc(Cl)cc3)c3c(=O)[nH]ccc32)[C@@H](C#N)C1 [Example 5-15, (1S,2S,5R)-2-(3-((4-chlorophenyl)amino)-4-oxo-4,5-dihydro-1H-pyrazolo[4,3-c]pyridin-1-yl)-5-(dimethylamino)cyclohexanecarbonitrile] |
| 2.9 nM | 0.17 nM | N#C[C@H]1CCCC[C@@H]1n1nc(Nc2ccc(-c3noc(=O)[nH]3)cc2)c2c(=O)[nH]ccc21 [Example 15-17, (1S,2S)-2-(4-oxo-3-{[4-(5-oxo-4,5-dihydro-1,2,4-oxadiazol-3-yl)phenyl]amino}-4,5-dihydro-1H-pyrazolo[4,3-c]pyridin-1-yl)cyclohexanecarbonitrile] |
| 3.2 nM | 0.45 nM | N#C[C@H]1CCCC[C@@H]1n1nc(Nc2ccccc2)c2c(=O)[nH]ccc21 [Example 3-25, (1S,2S)-2-[4-oxo-3-(phenylamino)-4,5-dihydro-1H-pyrazolo[4,3-c]pyridin-1-yl]cyclohexanecarbonitrile] |
| 0.5 nM | 0.17 nM | CC(C)(c1ccc(Nc2nn([C@H]3CCCC[C@@H]3C#N)c3cc[nH]c(=O)c23)cc1)n1ccnn1 [Example 3-147, (1S,2S)-2-[3-({4-[1-methyl-1-(1H-1,2,3-triazol-1-yl)ethyl]phenyl}amino)-4-oxo-4,5-dihydro-1H-pyrazolo[4,3-c]pyridin-1-yl]cyclohexanecarbonitrile] |
| 5.4 nM | 1.3 nM | CC1c2ccc(Nc3nn([C@H]4CCCC[C@@H]4C#N)c4cc[nH]c(=O)c34)cc2CN1C(=O)OC(C)(C)C (stereo partly drawn) [Example 18-1, tert-Butyl 5-((1-((1S,2S)-2-cyanocyclohexyl)-4-oxo-4,5-dihydro-1H-pyrazolo[4,3-c]pyridin-3-yl)amino)-1-methylisoindoline-2-carboxylate] |
| 97 nM | 18 nM | N#C[C@@H]1CCCC[C@H]1n1nc(Nc2ccnc(F)c2)c2c(=O)[nH]ccc21 [Example 3-1, (1R,2R)-2-{3-[(2-Fluoropyridin-4-yl)amino]-4-oxo-4,5-dihydro-1H-pyrazolo[4,3-c]pyridin-1-yl}cyclohexanecarbonitrile] |
| 3.2 nM | 0.32 nM | N#C[C@H]1CCCC[C@@H]1n1nc(Nc2ccc(-c3ccno3)cc2)c2c(=O)[nH]ccc21 [Example 15-5, (1S,2S)-2-{3-[(4-isoxazol-5-ylphenyl)amino]-4-oxo-4,5-dihydro-1H-pyrazolo[4,3-c]pyridin-1-yl}cyclohexanecarbonitrile] |
| 0.41 nM | 0.16 nM | CC(C)(O)c1cn(Cc2ccc(Nc3nn([C@H]4CCCC[C@@H]4C#N)c4cc[nH]c(=O)c34)cc2)nn1 [Example 3-52, (1S,2S)-2-{3-[(4-{[4-(1-hydroxy-1-methylethyl)-1H-1,2,3-triazol-1-yl]methyl}phenyl)amino]-4-oxo-4,5-dihydro-1H-pyrazolo[4,3-c]pyridin-1-yl}cyclohexanecarbonitrile] |
| 0.42 nM | 0.37 nM | N#C[C@H]1CCCC[C@@H]1n1nc(Nc2ccc(Cn3nccn3)cc2)c2c(=O)[nH]ccc21 [Example 3-45, (1S,2S)-2-(4-oxo-3-{[4-(2H-1,2,3-triazol-2-ylmethyl)phenyl]amino}-4,5-dihydro-1H-pyrazolo[4,3-c]pyridin-1-yl)cyclohexanecarbonitrile] |
| 3.6 nM | 0.55 nM | N#C[C@H]1CCCC[C@@H]1n1nc(Nc2ccc(-c3ncno3)cc2)c2c(=O)[nH]ccc21 [Example 15-6, (1S,2S)-2-(3-{[4-(1,2,4-oxadiazol-5-yl)phenyl]amino}-4-oxo-4,5-dihydro-1H-pyrazolo[4,3-c]pyridin-1-yl)cyclohexanecarbonitrile] |
| 0.43 nM | 0.17 nM | CC(C)(C)NS(=O)(=O)c1ccc(Nc2nn([C@H]3CCCC[C@@H]3C#N)c3cc[nH]c(=O)c23)cc1 [Example 3-140, N-tert-butyl-4-({1-[(1S,2S)-2-cyanocyclohexyl]-4-oxo-4,5-dihydro-1H-pyrazolo[4,3-c]pyridin-3-yl}amino)benzenesulfonamide] |
